Reference: the supplement of paper PMC10307832

How the values were obtained:
Test in all cases: relative viability (nuclei count vs DMSO), 5 days (fraction); higher = more cells survive
Pazopanib + Vorinostat = compound: Cc1ccc(Nc2nccc(N(C)c3ccc4c(C)n(C)nc4c3)n2)cc1S(N)(=O)=O [Pazopanib] + O=C(CCCCCCC(=O)Nc1ccccc1)NO [Vorinostat] (partner 1 µM)
Procedure, shortened: (§1)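 Relative viability equals treated-well nuclei counts divided by vehicle-well nuclei counts. Counts came from 4× images of lung cancer cell lines grown in 1536-well plates for 5 days after pin-tool dosing on the day after seeding. Dosing used one drug alone or a fixed anchor-drug dose plus five library-drug doses (not always all listed) in √10 steps, and values are medians of duplicate plates.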

Pazopanib + OSI-027 = compound: Cc1ccc(Nc2nccc(N(C)c3ccc4c(C)n(C)nc4c3)n2)cc1S(N)(=O)=O [Pazopanib] + COc1cccc2cc(-c3nc([C@H]4CC[C@H](C(=O)O)CC4)n4ncnc(N)c34)[nH]c12 [OSI-027] (partner 0.5 µM)
Procedure, shortened: as §1

Ponatinib + Dasatinib = compound: Cc1ccc(C(=O)Nc2ccc(CN3CCN(C)CC3)c(C(F)(F)F)c2)cc1C#Cc1cnc2cccnn12 [Ponatinib] + Cc1nc(Nc2ncc(C(=O)Nc3c(C)cccc3Cl)s2)cc(N2CCN(CCO)CC2)n1 [Dasatinib] (partner 0.075 µM)
Procedure, shortened: as §1

Pazopanib + Alpelisib = compound: Cc1ccc(Nc2nccc(N(C)c3ccc4c(C)n(C)nc4c3)n2)cc1S(N)(=O)=O [Pazopanib] + Cc1nc(NC(=O)N2CCC[C@H]2C(N)=O)sc1-c1ccnc(C(C)(C)C(F)(F)F)c1 [Alpelisib] (partner 2 µM)
Procedure, shortened: as §1

Cell Line	relative viability (Pazopanib + Vorinostat; first compound 0.01 µM)	relative viability (Pazopanib + Vorinostat; first compound 0.03162 µM)	relative viability (Pazopanib + Vorinostat; first compound 0.1 µM)	relative viability (Pazopanib + Vorinostat; first compound 0.3162 µM)	relative viability (Pazopanib + Vorinostat; first compound 1 µM)	relative viability (Pazopanib + OSI-027; first compound 0.01 µM)	relative viability (Pazopanib + OSI-027; first compound 0.03162 µM)	relative viability (Pazopanib + OSI-027; first compound 0.1 µM)	relative viability (Pazopanib + OSI-027; first compound 0.3162 µM)	relative viability (Pazopanib + OSI-027; first compound 1 µM)	relative viability (Ponatinib + Dasatinib; first compound 0.002 µM)	relative viability (Ponatinib + Dasatinib; first compound 0.006325 µM)	relative viability (Ponatinib + Dasatinib; first compound 0.06325 µM)	relative viability (Ponatinib + Dasatinib; first compound 0.2 µM)	relative viability (Pazopanib + Alpelisib; first compound 0.01 µM)	relative viability (Pazopanib + Alpelisib; first compound 0.03162 µM)	relative viability (Pazopanib + Alpelisib; first compound 0.1 µM)	relative viability (Pazopanib + Alpelisib; first compound 0.3162 µM)	relative viability (Pazopanib + Alpelisib; first compound 1 µM)
NCI-H2342	0.671	0.789	0.704	0.762	0.687	0.535	0.665	0.564	0.624	0.524	0.285	0.309	0.296	0.296					
HCC-15	0.878	0.906	0.867	0.893	0.791	0.622	0.825	0.7	0.669	0.815	0.585	0.61	0.828	0.61	0.788	0.931	0.885	0.909	0.986
A-427	0.862	0.941	0.825	0.903	0.971	0.512	0.481	0.462	0.516	0.448	0.696	0.784	0.721	0.481	1.07	1.13	1.09	1.06	1.03
NCI-H2228	1.12	1.01	0.706	0.59	0.619	0.518	0.495	0.532	0.507	0.655	0.372	0.515	0.462	0.393	0.783	0.89	1.02	0.769	0.643
NCI-H1734	0.66	0.864	0.882	0.942	0.875	0.56	0.555	0.558	0.567	0.605	0.496	0.469	0.42	0.377	0.632	0.702	0.743	0.65	0.769
NCI-H2347	0.522	0.593	0.736	0.587	0.83	0.425	0.465	0.402	0.405	0.344	0.302	0.301	0.404	0.362	1.06	1.04	1.08	1.06	1.16
PC-3 [JPC-3]		0.79	0.597	0.973	0.93	0.929	0.806	0.747	0.756	0.661	0.99	0.981	1.12	0.917	0.965	1.04	1.19	0.991	0.956
NCI-H1915	0.385	0.481	0.513	0.525	0.455	0.61	0.659	0.626	0.588	0.64	0.308	0.33	0.27	0.267	1.06	1.11	0.971	1.04	0.952
NCI-H1666	1.15	1.09	0.993	1.06	0.909	0.86	0.953	0.882	0.866	0.948	0.761	0.829	0.906	0.853	1.07	1.06	1.02	0.954	1.16
HCC-366	0.239	0.336	0.414	0.379	0.81	0.807	0.992	0.823	0.975	0.945	0.563	0.621	0.644	0.54	0.33	0.37	0.54	0.444	0.454
NCI-H1395	0.586	0.768	0.673	0.734	1.07	0.606	0.741	0.605	0.616	0.706	0.392	0.404	0.427	0.393	1.02	1.03	1.02	1.12	1.17
NCI-H727	1.17		1.06	1.15	1.08	0.462	0.561	0.545	0.505	0.574	0.322	0.497	0.338	0.565	0.634	0.693	0.637	0.664	0.717
RERF-LC-KJ	0.63	0.79	0.622	0.601	0.596	0.677	0.605	0.605	0.515	0.617	0.707	0.824	0.93	0.844	0.808	0.928	0.906	0.806	0.935
NCI-H1623						0.415	0.401	0.421	0.448	0.411	0.524	0.527	0.55	0.539					
Calu-6															0.973	1.09	1.04	0.956	0.99
LC-2-ad	0.697	0.719	0.732	0.771	0.732	0.865	1	0.84	0.808	0.99	0.286	0.298	0.313	0.256	0.844	0.884	0.916	0.866	0.891
CAL-12T	0.742	0.649	0.744	0.754	0.834	0.473	0.943	0.609	0.591	0.684	0.48	0.37	0.365	0.219	1.21	1.32	1.11	1.35	1.27
SK-LU-1	0.756	0.852	0.755	0.621	0.861	0.452	0.345	0.385	0.395	0.352	0.19	0.178	0.172	0.137	0.977	1.24	1.1	1.05	1.04
